Reference: patent US4211773A, “5-Substituted 1-(2'-Deoxy-2'-substituted-β-D-arabinofuranosyl)pyrimidine nucleosides” (Sloan Kettering Institute for Cancer Research, priority 1978, dated 1980)
Converted amounts (≈) assume the structure as drawn. Where two headings read alike, the source gives them in different places.

Experiments:
[1] = tested on: Cytomegalovirus (CMV strain AD 169); assay: Effective dose against Cytomegalovirus strain AD-169; CMV plaque formation on WI-38 cells; assay type: cell-based; details: for minimal effective concentration: Human betaherpesvirus 5, CMV strain AD 169, WI-38 cells
Protocol: (§1) The effective doses for 1-(2-deoxy-2-fluoro-β-D-arabinofuranosyl)-5-iodocytosine are given below. 1-(2-deoxy-2-fluoro-β-D-arabinofuranosyl)-5-iodocytosine is diluted in physiological saline, filter sterilized, and inoculated. This compound is readily soluble at concentrations of 25 mg/ml in saline. In mouse studies, the drug is inoculated by the intraperitoneal route.

Solubility in saline = assay type: physicochemical; details: read-out: readily soluble at concentrations of
Protocol: as §1

[2] = tested on: Herpes Simplex Virus--Type 1 (HSV-1) strain 2931; assay: Capacity to suppress HSV-1 replication in monolayers of Vero cells; assay type: cell-based; details: 24 hr, read-out: Anti-viral Activity (% reduction of HSV1 titer)
Protocol: The capacity of 2'-fluoro-arabinosyl nucleosides (Formulas IV and V shown below) to suppress replication of Herpes Simplex virus-type 1 (HSV-1) in monolayers of Vero cells is shown in Table I.
Vero cell monolayers were infected with approximately 1 plaque forming unit (PFU) per cell of Herpes Simplex Virus--Type 1 (HSV-1) strain 2931 and incubated for 2 hr. Maintenance media containing the various concentrations of drugs were used to overlay the monolayers. Supernatant fluids were collected 24 hr. later and titered on Vero cell monolayers described in Lopez et al, Ann. N.Y. Acad. Sci., 284, 351 (1977). Percent inhibition over controls was calculated.

[3] = tested on: Herpes Simplex Virus - type 2; assay: Inhibition of Herpes Simplex Virus type 2 replication (effective doses); assay type: cell-based; details: for EC50: read-out: ED50 (the source's name)
Protocol: (§2) Compounds of the invention show anti-viral and anti-tumor activity. 1-(2-Deoxy-2-fluoro-β-D-arabinofuranosyl)-5-iodocytosine inhibits Herpes Simplex Virus type 1 and type 2 replication. HFEM, Patton, 2931, and F-strain HSV-1 and 333 and G-strain HSV-2 are affected at concentrations of 1-(2-deoxy-2-fluoro-β-D-arabinofuranosyl)-5-iodocytosine 0.01 μM (approximately 0.004 μg/ml).
as §1

[4] = tested on: thymidine kinase negative strain of HSV-1 (HSV-1 TK^-); assay: Activity against thymidine kinase negative HSV-1; assay type: cell-based; details: Human alphaherpesvirus 1, read-out: not affected at concentrations of up to
[5] = tested on: K 562 cells, a cell line of chronic myologenous leukemia cells; assay: Suppression of replication of K 562 cells in vitro; assay type: cell-based; details: Homo sapiens, K562, read-out: concentration found to suppress replication of K 562 cells
Protocol: Since 1-(2-deoxy-2-fluoro-β-D-arabinofuranosyl)-5-iodocytosine was active against a virus which uses fetal thymidine kinase and since many tumor cells express high concentrations of fetal thymidine kinase, it was tested as a selective anti-tumor agent.

[6] = Toxicity to normal lymphoblastoid cells; assay type: cell-based; details: read-out: not toxic at concentrations of up to
Protocol: Since 1-(2-deoxy-2-fluoro-β-D-arabinofuranosyl)-5-iodocytosine was not toxic to normal lymphoblastoid cells at concentrations of up to 10 μM, the compound is believed to affect tumor cells at concentrations 1/100th those needed to suppress normal cell replication. Compounds of the invention can be used as a selective treatment for tumors expressing the fetal thymidine kinase which includes most tumors.

P815 = assay: Cytotoxicity, inhibition of growth of P815 cells in vitro; assay type: cell-based; details: Mus musculus, 96 hrs. incubation at 37° C., read-out: Cytoxicity ID50
Protocol: (§3) *****Concentration required for 50% inhibition of growth of cells in
(§4) vitro after 96 hrs. incubation at 37° C.

HSV-1 strain 2931 = assay: In vivo activity in A/J mice infected with HSV-1 strain 2931; details: for mice surviving the 21 day experiment: starting 24 hours after inoculation
Protocol: as §1
1-(2-deoxy-2-fluoro-β-D-arabinofuranosyl)-5-iodocytosine was also shown to be active in vivo. A/J mice were inoculated with approximately 50 LD50 of HSV-1 strain 2931 intraperitoneally and then treated with 1-(2-deoxy-2-fluoro-β-D-arabinofuranosyl)-5-iodocytosine starting 24 hours later. 1-(2-deoxy-2-fluoro-β-D-arabinofuranosyl)-5-iodocytosinewas given at 10 and 1 mg/kg/da for 5 days. Untreated mice died 8 days after inoculation. Five of 10 mice treated with 10 mg/kg/day survived the 21 day experiment. Two of 10 treated with 1 mg/kg/da survival the 21 day experiment and the remainder died an average of 10 days after inoculation.

[7] = tested on: Herpes Simplex Virus - type 1; assay: Inhibition of Herpes Simplex Virus type 1 replication (effective doses); assay type: cell-based; details: for EC50: read-out: ED50 (the source's name)
Protocol: as §2, §1

L51784 = assay: Cytotoxicity, inhibition of growth of L51784 cells in vitro; assay type: cell-based; details: 96 h, read-out: Cytoxicity ID50
Protocol: as §3, §4

Question: With Nc1nc(=O)n([C@@H]2O[C@H](CO)[C@@H](O)[C@@H]2F)cc1I [IVe, 1-(2-deoxy-2-fluoro-β-D-arabinofuranosyl)-5-iodocytosine] as the molecule, how does the EC50 ([1]; Human betaherpesvirus 5, AD169, WI-38, CMV strain AD-169, read-out: ED50 (the source's name)) read?
Answer: Its EC50 is 1000 nM.

Question: And the minimal effective concentration ([1]; read-out: concentration found to reduce CMV plaque formation)?
Answer: Its minimal effective concentration is 1 µM.

Question: What about the minimal effective concentration ([1]; read-out: concentration found to reduce CMV plaque formation (mass units)) of the same molecule?
Answer: Its minimal effective concentration is 0.4 µg/mL.

Question: And the solubility (Solubility in saline)?
Answer: Its solubility is at least 25 mg/mL.

Question: And the activity at 0.01 µg/mL ([2]; Human alphaherpesvirus 1, 0.01 μg/ml)?
Answer: The activity at 0.01 µg/mL was 90 to 99%.

Question: And the activity at 0.1 µg/mL ([2]; Human alphaherpesvirus 1, 0.1 μg/ml)?
Answer: The activity at 0.1 µg/mL was 99 to 99.9%.

Question: And the activity at 1 µg/mL ([2]; Human alphaherpesvirus 1, 1.0 μg/ml)?
Answer: The activity at 1 µg/mL was 100%.

Question: What about the activity at 10 µg/mL ([2]; Human alphaherpesvirus 1, 10 μg/ml) of the same molecule?
Answer: Its activity at 10 µg/mL is 100%.

Question: And the activity at 100 µg/mL ([2]; Human alphaherpesvirus 1, 100 μg/ml)?
Answer: Its activity at 100 µg/mL is 100%.

Question: What about the EC50 ([3]; Human alphaherpesvirus 2, HSV-2 strain 333) of the same molecule?
Answer: Its EC50 is 50 nM.

Question: What about the EC50 ([3]; Human alphaherpesvirus 2, HSV-2 strain G) of the same molecule?
Answer: Its EC50 is 10 nM.

Question: And the minimal effective concentration ([3]; Human alphaherpesvirus 2, 333 and G-strain HSV-2, read-out: concentration at which HSV-2 strains are affected)?
Answer: The minimal effective concentration was 0.01 µM.

Question: What about the minimal effective concentration [4] of the same molecule?
Answer: The minimal effective concentration was over 10 µM.

Question: And the minimal effective concentration [5]?
Answer: The minimal effective concentration was 0.04 µg/mL.

Question: What about the MNTC [6] of the same molecule?
Answer: The MNTC was over 10 µM.

Question: And the IC50 (P815)?
Answer: The IC50 was 14 µg/mL (≈ 37.7 µM).

Question: What about the “average time of death after inoculation (non-surviving mice)” value (HSV-1 strain 2931; 1 mg/kg/da for 5 days, intraperitoneal, remainder of mice) of the same molecule?
Answer: Its value is 10 days.

Question: What about the “mice surviving the 21 day experiment” value (HSV-1 strain 2931; 1 mg/kg/da for 5 days, intraperitoneal) of the same molecule?
Answer: Its value is “Two of 10”.

Question: And the “mice surviving the 21 day experiment” value (HSV-1 strain 2931; 10 mg/kg/day for 5 days, intraperitoneal)?
Answer: Its value is “Five of 10”.

Question: What about the “in vivo activity against HSV-1” value (HSV-1 strain 2931; 10 and 1 mg/kg/da for 5 days) of the same molecule?
Answer: Its value is “active in vivo against HSV-1”.

Question: What about the EC50 ([7]; Human alphaherpesvirus 1, HSV-1 strain 2931) of the same molecule?
Answer: The EC50 was 7 nM.

Question: What about the EC50 ([7]; Human alphaherpesvirus 1, HSV-1 strain HFEM) of the same molecule?
Answer: Its EC50 is under 10 nM.

Question: What about the EC50 ([7]; Human alphaherpesvirus 1, HSV-1 strain McIntyre) of the same molecule?
Answer: Its EC50 is under 10 nM.

Question: What about the EC50 ([7]; Human alphaherpesvirus 1, HSV-1 strain Patton) of the same molecule?
Answer: Its EC50 is 10 nM.

Question: What about the minimal effective concentration ([7]; Human alphaherpesvirus 1, HFEM, Patton, 2931 and F-strain HSV-1, read-out: concentration at which HSV-1 strains are affected) of the same molecule?
Answer: The minimal effective concentration was 0.01 µM.

Question: And the IC50 (L51784)?
Answer: The IC50 was 48 µg/mL (≈ 129 µM).
